What was measured:
[1] = target: Polyunsaturated fatty acid 5-lipoxygenase (Mus musculus) (UniProt P48999); test: The compound was tested for inhibitory activity against 5-lipoxygenase in mouse
[2] = The compound was tested for inhibitory activity against 5-Lipoxygenase in guinea pig polymorphonuclear leukocytes

Sequence of Polyunsaturated fatty acid 5-lipoxygenase (Mus musculus) (P48999 whole entry, looked up): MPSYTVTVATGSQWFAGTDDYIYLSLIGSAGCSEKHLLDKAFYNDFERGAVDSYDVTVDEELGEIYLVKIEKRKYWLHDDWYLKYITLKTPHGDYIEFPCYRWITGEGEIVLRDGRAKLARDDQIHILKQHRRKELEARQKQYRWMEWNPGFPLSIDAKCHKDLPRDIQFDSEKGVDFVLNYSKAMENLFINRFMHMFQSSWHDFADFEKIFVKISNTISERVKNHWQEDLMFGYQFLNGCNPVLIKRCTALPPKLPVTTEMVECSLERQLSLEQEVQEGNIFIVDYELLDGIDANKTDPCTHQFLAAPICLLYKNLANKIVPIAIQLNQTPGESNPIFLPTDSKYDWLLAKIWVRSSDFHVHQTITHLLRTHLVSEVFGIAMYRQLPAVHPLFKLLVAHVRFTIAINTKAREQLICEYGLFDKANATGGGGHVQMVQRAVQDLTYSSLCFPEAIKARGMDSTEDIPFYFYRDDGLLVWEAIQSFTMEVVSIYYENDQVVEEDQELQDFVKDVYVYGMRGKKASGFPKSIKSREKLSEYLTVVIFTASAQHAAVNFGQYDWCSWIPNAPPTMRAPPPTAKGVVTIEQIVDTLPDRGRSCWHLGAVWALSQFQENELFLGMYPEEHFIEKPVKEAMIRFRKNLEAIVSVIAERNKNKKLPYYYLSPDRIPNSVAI

Structure (SMILES)	IC50 [1]	IC50 [2]
Cc1nc(NCCCCCCc2ccccc2)nc(C)c1O	0.3 µM	–
Cc1ccc(C)n1-c1ccc(/C=C/CC(=O)N(C)O)cc1	–	0.6 µM

Source: BindingDB's records for doi:10.1021/jm00092a001 (Wyeth-Ayerst Research, 1992)
